In PubChem BioAssay (NCI):
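Where inhibition never reached the appropriate level, the endpoint shown equals the highest concentration tested. Otherwise, values were interpolated linearly from a five-concentration, 48-hour dose response in 96-well plates. GI50 is the concentration that inhibits growth by half. TGI: concentration producing complete growth inhibition.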

Test system: MDA-MB-468 breast
Test: growth of human tumour cells (NCI), 48 h

Molecule | GI50 [µM] | TGI [µM]
COc1ccc2cc(Cn3cc[n+](Cc4ccc5ccccc5c4)c3)ccc2c1 | 0.487 | 2.57
C=CC[C@@H]1/C=C(\C)C[C@H](C)C[C@H](OC)[C@H]2O[C@@](O)(C(=O)C(=O)N3CCCC[C@H]3C(=O)O[C@H](/C(C)=C/C3CC[C@@H](O)[C@H](OC)C3)[C@H](C)[C@@H](O)CC1=O)[C@H](C)C[C@@H]2OC (some centres undefined) | 12.2 | 27.3
CS(=O)(=O)c1ccc(Oc2cc(F)cc(C#N)c2)c2c1[C@H](O)C(F)(F)C2 | > 100 | > 100
O=C(NCCNc1nccc(-c2c(-c3cccc(O)c3)nc3sccn23)n1)Nc1cccc(C(F)(F)F)c1 | 1.67 | 3.33
COc1ccc(CCN2CCC(Nc3nc4ccccc4n3Cc3ccc(F)cc3)CC2)cc1 | 1.15 | 2.44
N=c1n(Cc2ccccc2)c(N)cc(=O)n1Cc1ccccc1 | 4.82 | 21.2
COC1=C2C[C@@H](C)C[C@@H](OC)[C@@H](O)[C@H](C)/C=C(\C)[C@@H](OC(N)=O)[C@H](OC)/C=C\C=C(/C)C(=O)NC(=CC1=O)C2=O | 0.0153 | 0.577
O=S(=O)(CCNCc1ccc(-c2ccc3ncnc(Nc4ccc(OCc5cccc(F)c5)c(Cl)c4)c3c2)o1)c1ccccc1 | 0.217 | 7.79
CCN(CC)CCCCNc1ncc2cc(-c3cc(OC)cc(OC)c3)c(NC(=O)NC(C)(C)C)nc2n1 | 8.81 | 21.7
COc1ccc(-c2nc(N3CCOCC3)c3sc(CN(C)c4ncc(C(=O)NO)cn4)cc3n2)cn1 | < 0.0104 | 0.0968
CC1OC(n2c3ccccc3c3c4c(c5c6ccccc6[nH]c5c32)C(=O)N(CCN2CCOCC2)C4=O)CC(O)C1O (centres undefined) | 1.57 | 4.57
N#C/C(=C1C=C/C(=N\O)C(Cl)=C\1)c1ccccc1 | 0.92 | 17.5
CC1(C)N=C(N)N=C(N)N1c1cccc(CCCCOc2ccccc2)c1 | 0.0775 | 4.08
CC(C)n1c(=O)n(C)c2cnc3cc(F)c(-c4ccc(OCCCN5CCCCC5)nc4)cc3c21 | 4.98 | 26
C=C(C)[C@@H]1CC[C@]2(C(=O)O)CC[C@]3(C)[C@H](CC[C@@H]4[C@@]5(C)C/C(=C/c6ccc(OC)cc6)C(=O)C(C)(C)[C@@H]5CC[C@]43C)[C@@H]12 | 1.81 | 7
O=C(NCCNc1nccc(-c2c(-c3ccc(F)cc3)nc3sccn23)n1)c1ccccc1 | 4.48 | 44.5
O=C(CN1C(=O)S/C(=C\C(Cl)=C\c2ccccc2)C1=O)NCCc1ccc(O)cc1 | 1.27 | 3.54
O=C(Cc1ccccc1)NC(c1ccc(Cl)cc1)c1c(O)ccc2ccccc12 (centres undefined) | 1.99 | 5.53
Cc1[nH]nc2ccc3nc(-c4ccc5[nH]ncc5c4)c4c(c3c12)CCCC4 | 1.02 | 4.38
O=C1/C(=C/c2ccccc2F)CN(C(=O)C(Cl)Cl)C/C1=C\c1ccccc1F | 0.277 | 1.11
Cc1cc(C)c2nc3nc(C)cc(C)c3c(N)c2c1 | 3.61 | 14.9

Molecule | GI50 [µM] | TGI [µM]
COc1ccc(-c2nn(-c3cccc(NC(=O)c4cccc(C(F)(F)F)c4)c3)cc2-c2ccncc2)cc1Cl | 1.68 | 9.61
Cn1ccnc1C(=O)/C=C/c1ccc(CC(=O)Nc2ccc(F)cc2)cc1 | 1.72 | 5.8
COc1nc(N)nc2c1ncn2[C@@H]1O[C@H](CO)[C@@H](O)[C@@H]1O | > 100 | > 100
C/C(=C\CCc1ccsc1)CC/C=C(\C)CCCN1CCC(CO)CC1 | 1.48 | 3.29
CCN(CC)CCCC(Cc1ccccc1)Nc1c2ccc(Cl)cc2nc2ccc(OC)cc12 (centres undefined) | 1.7 | 3.67
COc1ccc(OC)c(/C=C2\COc3ccc(O)c(O)c3C2=O)c1 | 1.66 | 5.25
COc1cc(NC(=O)CSc2nc3ccccc3c(=O)n2CCc2ccccc2)cc(OC)c1OC | 2.2 | 7.13
COc1cccc(Cn2c(-c3nonc3NC(C)=O)nc3ccccc32)c1 | 1.45 | 6.36
Clc1ccc(C2=NN[C@H](c3cn(-c4ccccc4)nc3-c3ccccc3)C2)cc1 | 4.22 | 18.2
O=C1CC[C@H](c2ccc(O)c3c2C(=O)[C@@H]2O[C@@H]2C3=O)c2cccc(O)c21 | 1.61 | 4.27
S=C(c1ccc2c(c1)OCO2)N1CCN(c2cccc(Cl)c2)CC1 | 0.34 | > 36.8
CCOC(=O)c1c(Cl)c2c(n1Cc1cccc(OC)c1)-c1oncc1CC2 | 0.652 | 5.87
O=C1CCC(N2Cc3c(C#CCCCNC(=O)c4cc5c(o4)C(=O)c4ccccc4C5=O)cccc3C2=O)C(=O)N1 (centres undefined) | 2.13 | 6.25
C#C[C@]1(O)CC[C@H]2[C@@H]3CC=C4c5sc(Nc6cccc(F)c6)nc5CC[C@]4(C)[C@H]3CC[C@@]21C | 1.24 | 2.91
CCn1c(-c2nonc2N)nc2cncc(C(=O)NCCNC)c21 | 1.9 | 14.6
COc1cc(C2CC(c3ccccc3)=NN2C(C)=O)cc(OC)c1OC (centres undefined) | 3.34 | 37.1
Cc1cc2cc3cc(C)c(N)cc3[n+](C)c2cc1N | 0.243 | 1.3
C/C(=C(\c1ccc(O)cc1)c1ccc(OCCN2CCCCCC2)cc1)c1ccc(Cl)cc1 | 1.13 | 4.51
O=C(Nc1ccc(OCc2nnc(-c3ccccc3)o2)c(F)c1)Nc1ccc(Cl)c(C(F)(F)F)c1 | 1.9 | 6.93
Cc1nn(-c2ccccc2)c2nc3c(nc12)C1=NCCN1C(c1ccc(Cl)cc1)N3 (centres undefined) | 1.65 | 3.23
H-HIIKKIRTWYRKAWHVLGKV-NH2 | 6.38 | 39
